According to PMC8037142, “Design, Synthesis, Molecular Modeling and Antitumor Evaluation of Novel Indolyl-Pyrimidine Derivatives with EGFR Inhibitory Activity” (Molecules, 2021):
Like-named read-outs stand apart in the source and are kept apart here.

Legend:
[1] = system: HCT-116 colon cancer cell line; test: Resazurin Cell Growth Inhibition Assay, HCT-116; format: cell-based, human
Description: (§1) Compounds 1–4 were assessed for their in vitro cytotoxic activity against three human cell lines i.e., breast (MCF-7), liver (HepG2), colon (HCT-116) cancer cell lines as well as in lung fibroblast (WI38) normal cell line using the Resazurin Cell Growth Inhibition Assay. Both erlotinib and 5-Fluorouracil (5-FU) were used as reference drugs. Concentrations of the tested compounds that give about 50% inhibition of cell viability (IC50, mean of triplicate) in µM were obtained. […] However, if replaced by a hydrazone substituent, a more prominent efficacy toward the three cancer cell lines was observed. […] The most promising in vitro antiproliferative activity was obtained when the hydrazone is bearing electron-withdrawal groups i.e., 4-chlorobenzylidene moiety (compound 3f), 3,4-dichloro benzylidene moiety (compound 3g) and 4-fluorobenzylidene moiety (compound 3h) compared to the standard treatment (Table 1, Figure 5). The inhibitory activity of compounds was reduced when the hydrazone group is bearing electron donating groups i.e., 4-methyl group (compound 3b), 2-methoxy group (compound 3c), 4-hydroxy (compound 3d) and 4-dimethylamino group (compound 3e). The trend of antiproliferative activity of compounds […] against all tested cell lines has the following descending order: (3g > 3h >3f >3a >3b > 3c > 3d > 3e). […]. […] This is mainly because this compound has the highest lipophilicity as well as less electron density as it has 2-Cl atoms (more electronegativity) on the indolyl pyrimidine-thiazolidinone.
(§2) In vitro cytotoxicity was measured according to the Resazurin Cell Growth Inhibition Assay Alamar Blue or Resazurin (Promega, Mannheim, Germany) reduction assay was used to assess the cytotoxicity of the studied samples. The assay tests cellular viability and mitochondrial function. Briefly, adherent cells were grown in tissue culture flasks, and then harvested by treating the flasks with 0.025% trypsin and 0.25 mM EDTA for 5 min. Once detached, cells were washed, counted, and an aliquot (5 × 10^3 cells) were placed in each well of a 96-well cell culture plate in a total volume of […]. Cells were allowed to attach overnight and then treated with samples. […]. Each assay was performed as triplicates. […] […]. The viability was compared based on a comparison with untreated cells. IC50 (on cancer cells) were the concentration of sample required to inhibit 50% of the cell proliferation and were calculated from a calibration curve by a linear regression using Microsoft Excel.

[2] = system: HepG2 liver cancer cell line; test: Resazurin Cell Growth Inhibition Assay, HepG2; format: cell-based, human
Description: as §1, §2

[3] = Resazurin Cell Growth Inhibition Assay, WI38 normal cells; format: cell-based; conditions: human, WI38 normal lung fibroblast cells, WI-38 normal cells, mean ± SD of three experiments, read-out: Cytotoxic Activity IC50
Description: as §1, §2

[4] = system: MCF-7 breast cancer cell line; test: Resazurin Cell Growth Inhibition Assay, MCF-7; format: cell-based; conditions: Homo sapiens, MCF7; MCF-7, 48 h, mean ± SD of three experiments; read-out: Cytotoxic Activity IC50
Description: as §1, §2

[5] = system: Ehrlich ascites carcinoma (EAC); test: In vivo antitumor assay in EAC tumor bearing mice; conditions: 0.5 mg/mouse for nine days; for Tumor Volume: ascitic fluid; for MST (mean survival time): mean of two experiments; for Viable Tumor Cell Count: trypan blue
Description: The antitumor activity of these compounds was assessed by the change in tumor volume, viable cell count, mean survival time (MST) and % increase in lifespan (% ILS) of the EAC tumor bearing mice and 5-FU (standard treatment). The mean survival time (MST) and % increase in lifespan (% ILS) of EAC tumor bearing mice, as well as the influence of these compounds on viable tumor cells and the tumor volume, are shown in Table 2. The hematological profile of these mice was also assessed in comparison with the standard treatment with 5-FU, and no obvious effect on RBCs or WBCs was observed. […] MST = (day of first death + day of last death)/2 %ILS = [(MST of treated group/MST of control group) − 1] × 100 […]
In vivo antitumor evaluation was carried out as previously reported (see Supplementary Materials).
2. Biological Evaluation Details: a) In vivo antitumor assay: Materials . Adult Swiss male mice (weighing 20 -25 g) were obtained from the Department of Pharmacology, Faculty of Pharmacy, Mansoura University, Egypt.
They were kept in microlon boxes at temperature 25 ± 2 °C with a regular 12 hrs light/dark cycle. In addition, food and water were available. EAC cells (procured from NCI, Cairo, Egypt) were harvested and prepared, then their total number was counted.
Procedure. 7 Groups of mice ( n = 4) were used.
Group 1: Negative control (no EAC cells) - received normal saline.
Group 2: Positive control (EAC cells) - received normal saline.
Group 3: EAC cells - treated with compound 3g (0.5 mg/mouse).
Group 4: EAC cells - treated with compound 4f (0.5 mg/mouse).
Group 5: EAC cells - treated with compound 4g (0.5 mg/mouse).
Group 6: EAC cells - treated with compound 4h (0.5 mg/mouse).
Group 7: EAC cells - treated with 5-fluorouracil (0.5 mg/mouse).
2 x 10^6 EAC cells were injected intraperitoneally in each mouse (groups 2-7). After […]
for nine days, then blood samples were withdrawn for assessment of blood count.
Determination of tumor volume
The ascetic fluid was gathered from the peritoneal cavity and its volume was determined. It was then centrifuged, and the packed tumor cell volume was measured.
Determination of viable tumor cell count
100 μL Sample of EAC cells (from three mice per group) was utilized and diluted twenty times with saline. Cells were stained with trypan blue, viable cells are not stained, while the dead ones are stained. The number of viable cells was calculated.

[6] = target: EGFR kinase (Homo sapiens, UniProt P00533); test: In vitro EGFR inhibitory assay (EnzyChrom Kinase Assay Kit EKIN-400); conditions: for inhibition at 10 µM: read-out: % Inhibition of EGFR
Description: A first-generation EGFR inhibitor, erlotinib, was used as standard treatment. […] IC50 for these compounds was determined. […] In addition, 20 µL reaction mixture containing the EGFR kinase, ATP, and substrate in the provided assay buffer. Set up a blank control that contains ATP and substrate but no enzyme. Incubate at desired temperature for 30 min. Prepare 900 µL 10µM (adenosine diphosphate) ADP premix by mixing 3 µL of 3 mM standard and 897 µL distilled water. Transfer 20 µL standards into separate wells of the plate. Prepare enough working reagent for each well. Add 40 µL working reagent to each assay well. Tap plate to mix. Incubate at room temperature for 10 min. Read fluorescence intensity at λexc = 530nm and λem = 590 nm, and then calculate kinase activity.

[7] = Homo sapiens, HCT-116, 48 h, mean ± SD of three experiments, read-out: Cytotoxic Activity IC50
[8] = Homo sapiens, HepG2, 48 h, mean ± SD of three experiments, read-out: Cytotoxic Activity IC50

EGFR kinase, sequence (P00533 25-1210): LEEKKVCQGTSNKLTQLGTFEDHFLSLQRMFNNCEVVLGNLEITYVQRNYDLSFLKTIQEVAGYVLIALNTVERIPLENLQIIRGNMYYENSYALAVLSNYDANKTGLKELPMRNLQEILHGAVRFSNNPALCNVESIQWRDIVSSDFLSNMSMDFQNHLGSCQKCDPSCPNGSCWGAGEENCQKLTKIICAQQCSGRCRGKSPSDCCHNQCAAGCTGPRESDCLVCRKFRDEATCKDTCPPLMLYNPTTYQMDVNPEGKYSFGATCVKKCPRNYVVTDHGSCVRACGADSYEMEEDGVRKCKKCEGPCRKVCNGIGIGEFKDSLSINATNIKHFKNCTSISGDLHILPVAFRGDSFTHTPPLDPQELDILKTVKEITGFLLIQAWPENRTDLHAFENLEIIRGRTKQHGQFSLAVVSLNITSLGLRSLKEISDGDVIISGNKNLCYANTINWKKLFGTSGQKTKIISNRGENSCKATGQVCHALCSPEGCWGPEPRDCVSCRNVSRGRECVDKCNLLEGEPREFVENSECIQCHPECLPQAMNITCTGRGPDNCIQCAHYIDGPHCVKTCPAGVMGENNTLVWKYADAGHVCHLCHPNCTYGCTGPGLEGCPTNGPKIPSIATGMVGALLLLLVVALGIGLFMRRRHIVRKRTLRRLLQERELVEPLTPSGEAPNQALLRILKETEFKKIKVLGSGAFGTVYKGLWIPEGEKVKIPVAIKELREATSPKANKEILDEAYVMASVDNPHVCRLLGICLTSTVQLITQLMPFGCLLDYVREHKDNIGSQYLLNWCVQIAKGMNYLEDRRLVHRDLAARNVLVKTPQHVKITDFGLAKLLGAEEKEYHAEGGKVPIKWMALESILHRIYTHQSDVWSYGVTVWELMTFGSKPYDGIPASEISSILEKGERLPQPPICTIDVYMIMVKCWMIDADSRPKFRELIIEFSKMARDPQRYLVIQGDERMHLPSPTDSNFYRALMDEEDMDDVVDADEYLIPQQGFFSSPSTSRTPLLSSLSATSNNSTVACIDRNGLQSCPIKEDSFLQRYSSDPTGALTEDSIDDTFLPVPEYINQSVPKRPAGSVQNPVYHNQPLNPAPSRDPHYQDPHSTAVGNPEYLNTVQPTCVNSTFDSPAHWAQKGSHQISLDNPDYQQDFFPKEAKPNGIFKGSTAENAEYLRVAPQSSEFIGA

CC1=C(C(=O)N/N=C/c2ccc(Cl)cc2)C(c2c[nH]c3ccccc23)NC(=S)N1 (stereo not shown) [Compound 3f]
IC50 [1, 7]: 10.2 ± 1.18 µM | IC50 [2, 8]: 10.6 ± 2.32 µM | IC50 at 48 h [3]: 29.8 ± 1.51 µM | IC50 [4]: 10.7 ± 2.3 µM

CC1=C(C(=O)N/N=C/c2ccc(F)cc2)C(c2c[nH]c3ccccc23)NC(=S)N1 (stereo not shown) [Compound 3h]
IC50 [1, 7]: 10.1 ± 2.45 µM | IC50 [2, 8]: 10.4 ± 2.08 µM | IC50 at 48 h [3]: 28.1 ± 4.22 µM | IC50 [4]: 10.2 ± 2.01 µM

CC1=C(C(=O)N/N=C/c2ccccc2O)C(c2c[nH]c3ccccc23)NC(=S)N1 (stereo not shown) [Compound 3d]
IC50 [1, 7]: 16.6 ± 1.27 µM | IC50 [2, 8]: 20.2 ± 2.33 µM | IC50 at 48 h [3]: 35.3 ± 2.42 µM | IC50 [4]: 19.2 ± 2.35 µM

CC1=C(C(=O)NN2C(=O)CSC2c2ccccc2O)C(c2c[nH]c3ccccc23)NC(=S)N1 (stereo not shown) [Compound 4d, N-(2-(2-hydroxyphenyl)-4-oxothiazolidin-3-yl)-4-(1H-indol-3-yl)-6-methyl-2-thioxo-1,2,3,4-tetrahydropyrimidine-5-carboxamide]
melting point: 180 to 182 °C | IC50 [1, 7]: 13.6 ± 1.09 µM | IC50 [2, 8]: 18.7 ± 1.2 µM | IC50 at 48 h [3]: 29.9 ± 3.63 µM | IC50 [4]: 12.6 ± 1.7 µM

CC1=C(C(=O)NN2C(=O)CSC2c2ccc(C)cc2)C(c2c[nH]c3ccccc23)NC(=S)N1 (stereo not shown) [Compound 4b, 4-(1H-indol-3-yl)-6-methyl-N-(4-oxo-2-(p-tolyl)thiazolidin-3-yl)-2-thioxo-1,2,3,4-tetrahydropyrimidine-5-carboxamide]
melting point: 220 to 222 °C | IC50 [1, 7]: 12.6 ± 1.05 µM | IC50 [2, 8]: 18 ± 3.2 µM | IC50 at 48 h [3]: 39.8 ± 4.51 µM | IC50 [4]: 11.6 ± 3.22 µM

CC1=C(C(=O)NN2C(=O)CSC2c2ccc(N(C)C)cc2)C(c2c[nH]c3ccccc23)NC(=S)N1 (stereo not shown) [Compound 4e, N-(2-(4-(dimethylamino)phenyl)-4-oxothiazolidin-3-yl)-4-(1H-indol-3-yl)-6-methyl-2-thioxo-1,2,3,4-tetrahydropyrimidine-5-carboxamide]
melting point: 170 to 172 °C | IC50 [1, 7]: 13.7 ± 0.55 µM | IC50 [2, 8]: 18.6 ± 0.94 µM | IC50 at 48 h [3]: 20.2 ± 5.52 µM | IC50 [4]: 14.2 ± 0.74 µM

CC1=C(C(=O)NN2C(=O)CSC2c2ccc(Cl)cc2)C(c2c[nH]c3ccccc23)NC(=S)N1 (stereo not shown) [Compound 4f, N-(2-(4-chlorophenyl)-4-oxothiazolidin-3-yl)-4-(1H-indol-3-yl)-6-methyl-2-thioxo-1,2,3,4-tetrahydropyrimidine-5-carboxamide]
Tumor Volume [5]: 2.50 mL | MST (mean survival time) [5]: 37 days | Viable Tumor Cell Count [5]: 40.70 10^6/mL | IC50 [1, 7]: 8.02 ± 0.26 µM | IC50 [2, 8]: 8.9 ± 1.73 µM | IC50 at 48 h [3]: 19.3 ± 5.87 µM | IC50 [6]: 380 ± 20 nM | inhibition at 10 µM [6]: 71% | IC50 [4]: 8.01 ± 1.83 µM

CC1=C(C(=O)NN2C(=O)CSC2c2ccc(Cl)c(Cl)c2)C(c2c[nH]c3ccccc23)NC(=S)N1 (stereo not shown) [Compound 4g, N-(2-(3,4-dichlorophenyl)-4-oxothiazolidin-3-yl)-4-(1H-indol-3-yl)-6-methyl-2-thioxo-1,2,3,4-tetrahydropyrimidine-5-carboxamide]
Tumor Volume [5]: 0.89 mL | MST (mean survival time) [5]: 46 days | Viable Tumor Cell Count [5]: 21.70 10^6/mL | IC50 ([1]; HCT-116, 48 h, mean ± SD of three experiments; read-out: Cytotoxic Activity IC50): 5.02 ± 1.19 µM | IC50 [1, 7]: 6.6 µM | IC50 ([2]; HepG2, 48 h, mean ± SD of three experiments; read-out: Cytotoxic Activity IC50): 6.6 ± 1.4 µM | IC50 [2, 8]: 5.02 µM | IC50 at 48 h [3]: 16.3 ± 3.21 µM | inhibition at 10 µM [6]: 79% | IC50 [4]: 5.1 ± 1.14 µM

CC1=C(C(=O)N/N=C/c2ccccc2)C(c2c[nH]c3ccccc23)NC(=S)N1 (stereo not shown) [Compound 3a]
IC50 [1, 7]: 15.2 ± 2.32 µM | IC50 [2, 8]: 19.2 ± 1.5 µM | IC50 at 48 h [3]: 38.2 ± 2.1 µM | IC50 [4]: 17 ± 1.8 µM

CC1=C(C(=O)NN2C(=O)CSC2c2ccccc2)C(c2c[nH]c3ccccc23)NC(=S)N1 (stereo not shown) [Compound 4a, 4-(1H-indol-3-yl)-6-methyl-N-(4-oxo-2-phenylthiazolidin-3-yl)-2-thioxo-1,2,3,4-tetrahydropyrimidine-5-carboxamide]
melting point: 270 to 272 °C | IC50 [1, 7]: 12.3 ± 2.17 µM | IC50 [2, 8]: 17 ± 4.3 µM | IC50 at 48 h [3]: 38 ± 5.51 µM | IC50 [4]: 11.2 ± 4.31 µM

CC1=C(C(=O)NN=Cc2ccc(N(C)C)cc2)C(c2c[nH]c3ccccc23)NC(=S)N1 (stereo not shown) [Compound 3e, 4-(1H-indol-3-yl)-6-methyl-2-thioxo-1,2,3,4-tetrahydropyrimidine-5-carboxylic acid (4-dimethylamino-benzylidene)-hydrazide]
melting point: 180 to 182 °C | IC50 [1, 7]: 16.2 ± 1.15 µM | IC50 [2, 8]: 20.4 ± 2.3 µM | IC50 at 48 h [3]: 40 ± 2.31 µM | IC50 [4]: 19.8 ± 2.7 µM

CC1=C(C(=O)NN=Cc2ccc(C)cc2)C(c2c[nH]c3ccccc23)NC(=S)N1 (stereo not shown) [Compound 3b, 4-(1H-indol-3-yl)-6-methyl-2-thioxo-1,2,3,4-tetrahydropyrimidine-5-carboxylic acid (4-methyl-benzylidene)-hydrazide]
melting point: 240 to 242 °C | IC50 [1, 7]: 15.6 ± 3.15 µM | IC50 [2, 8]: 19.4 ± 2.19 µM | IC50 at 48 h [3]: 39.1 ± 1.3 µM | IC50 [4]: 18.5 ± 2.11 µM

COc1ccccc1/C=N/NC(=O)C1=C(C)NC(=S)NC1c1c[nH]c2ccccc12 (stereo not shown) [Compound 3c, 4-(1H-indol-3-yl)-6-methyl-2-thioxo-1,2,3,4-tetrahydropyrimidine-5-carboxylic acid (2-methoy-benzylidene)-hydrazide]
melting point: 220 to 222 °C | IC50 [1, 7]: 16.3 ± 4.16 µM | IC50 [2, 8]: 19.9 ± 2.06 µM | IC50 at 48 h [3]: 37.4 ± 1.49 µM | IC50 [4]: 18.9 ± 2 µM

C#Cc1cccc(Nc2ncnc3cc(OCCOC)c(OCCOC)cc23)c1 [erlotinib, reference compound]
IC50 [1, 7]: 7.49 ± 0.65 µM | IC50 at 48 h [3]: 22.5 ± 0.65 µM | IC50 [4]: 6.65 ± 0.82 µM

O=c1[nH]cc(F)c(=O)[nH]1 [Compound 5-FU, 5-Fluorouracil, reference compound]
Tumor Volume [5]: 0.80 mL | MST (mean survival time) [5]: 53.0 days | Viable Tumor Cell Count [5]: 19.07 10^6/mL | IC50 ([1]; Homo sapiens; HCT-116, 48 h, mean ± SD of three experiments; read-out: Cytotoxic Activity IC50): 7.88 ± 0.2 µM | IC50 ([2]; Homo sapiens; HepG2, 48 h, mean ± SD of three experiments; read-out: Cytotoxic Activity IC50): 5.34 ± 0.4 µM | IC50 at 48 h [3]: 5.7 ± 1.5 µM | IC50 [4]: 5.38 ± 0.24 µM

COc1ccccc1C1SCC(=O)N1NC(=O)C1=C(C)NC(=S)NC1c1c[nH]c2ccccc12 (stereo not shown) [Compound 4c, 4-(1H-indol-3-yl)-N-(2-(2-methoxyphenyl)-4-oxothiazolidin-3-yl)-6-methyl-2-thioxo-1,2,3,4-tetrahydropyrimidine-5-carboxamide]
melting point: 200 to 202 °C | IC50 [1, 7]: 13.2 ± 1.03 µM | IC50 [2, 8]: 18.5 ± 4.38 µM | IC50 at 48 h [3]: 29.5 ± 4.02 µM | IC50 [4]: 12.3 ± 4.08 µM
